Our source for the Activity, uptake ratio and Km values is ChEMBL document CHEMBL3526039, “Electrophysiological characterization of the polyspecific organic cation transporter plasma membrane monoamine transporter” (Drug Metab Dispos, 2012).

Series [1] concerns the target T1, Equilibrative nucleoside transporter 4 (Homo sapiens, UniProt Q7RTT9).
T1 sequence (Q7RTT9 whole entry): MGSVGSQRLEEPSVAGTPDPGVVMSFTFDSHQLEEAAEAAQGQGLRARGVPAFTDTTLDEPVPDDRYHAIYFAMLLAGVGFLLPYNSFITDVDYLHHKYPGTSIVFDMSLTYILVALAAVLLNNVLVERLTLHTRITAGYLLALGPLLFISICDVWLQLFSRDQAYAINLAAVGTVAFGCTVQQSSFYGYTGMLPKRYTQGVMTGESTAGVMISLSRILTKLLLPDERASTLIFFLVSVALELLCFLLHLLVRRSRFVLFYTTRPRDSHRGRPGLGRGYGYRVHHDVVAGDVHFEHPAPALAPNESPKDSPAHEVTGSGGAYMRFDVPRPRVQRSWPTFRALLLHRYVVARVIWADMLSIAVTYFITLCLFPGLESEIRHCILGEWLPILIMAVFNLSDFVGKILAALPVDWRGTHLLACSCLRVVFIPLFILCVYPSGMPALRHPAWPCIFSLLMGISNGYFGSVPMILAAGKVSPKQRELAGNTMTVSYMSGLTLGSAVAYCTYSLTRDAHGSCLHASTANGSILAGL
The experiment in a line: Induction of human PMAT activity expressed in Xenopus laevis oocytes assessed as induction of inward current at 2.5 mM in NaCl buffer at pH 7.5 by two-microelectrode voltage-clamp method. The format is cell-based. To be noted: pH 7.5, 2500 µM.

Series [2] has as its target T1, Equilibrative nucleoside transporter 4. The experiment in a line: Induction of human PMAT activity expressed in Xenopus laevis oocytes assessed as induction of inward current at 2.5 mM in NaCl buffer at pH 6 by two-microelectrode voltage-clamp method. The format is cell-based. The following applies: pH 6, 2500 µM.
The target of series [3] is T2, PMAT (equilibrative nucleoside transporter 4) (Homo sapiens, UniProt Q7RTT9).
T2 sequence (Q7RTT9 whole entry): T1 sequence (Q7RTT9 whole entry)
The experiment in a line: Increase of human PMAT-mediated drug uptake expressed in Xenopus laevis oocytes in NaCl buffer at pH 6 at 100 uM after 60 mins relative to control. To be noted: Xenopus laevis oocytes expressing human PMAT.

Series [4] deals with T2, PMAT (equilibrative nucleoside transporter 4). The experiment in a line: in vitro. The following applies: not told, pH 6.
Series [5] has the same target. The experiment in a line: in vitro. To be noted: not told, pH 6. The source holds these as a separate data set.

As to `CN1CC=C(c2ccccc2)CC1`, the Activity is -5.67 nanoampere in series [1] and -62.7 nanoampere in series [2].
As to `NC12CC3CC(CC(C3)C1)C2` [AMANTADINE], the results for the Activity in series [1] and in series [2] were -7.26 nanoampere and -21.2 nanoampere, respectively.
On to `NCCc1c[nH]cn1` [HISTAMINE], for which the Activity in series [1] is on record as -30.5 nanoampere; in series [2], -110 nanoampere. Besides, the uptake ratio at 1 h, 100 µM in series [3] was determined as 2. In addition, the Km in series [4] and in series [5] was 10 mM in each case.
Take `CN(C)C(=N)N=C(N)N` [METFORMIN]: the Activity is reported as -2.02 nanoampere in series [1] and -38 nanoampere in series [2].
In the same order, the values of `CN1CCC[C@H]1c1cccnc1` [NICOTINE] are -6.3 nanoampere and -75.7 nanoampere.
The like results for `CC[N+](CC)(CC)CC` [TETRYLAMMONIUM] were, in that order, -0.627 nanoampere and -11.7 nanoampere.

For orientation: Km means the concentration of substrate that gives half-maximal velocity.
